Patent US20200022995A1, “Novel Immunodulating Small Molecules” (AyuVis Research, Inc., priority 2018, published 2020)

Tests used:
[1] = target: TLR4 (Homo sapiens, UniProt O00206); test: TLR4 inhibitory and activating activity in THP-1 cells; format: cell-based; parameters: endogenous in cells; host or cells: THP-1 monocytes, PMA-stimulated
[2] = system: THP-1 cells; test: Monocyte differentiation, phagocytosis and intracellular killing of Pseudomonas aeruginosa in THP-1 cells; format: cell-based, human
Excerpt: Two of these compounds 8 and 32 stimulated monocyte differentiation into macrophages, increased phagocytosis of Pseudomonas aeruginosa (FIG. 18) and increased intracellular killing of bacteria (FIG. 19). These compounds have potential to be used as vaccine adjuvants and in combination with existing antibiotic for prophylactic treatment such as in cystic fibrosis patients.

[3] = system: hPBMC; test: Cytotoxicity in hPBMC (MTT); format: cell-based, human; details: 0.1, 1.0, 10, 100 and 1000 μM, 24 h
Experimental: The cells were treated with compounds and incubated for 24 h. Cell viability was assessed using MTT cell proliferation kit (Promega). All the compounds were not toxic to hPMBC (FIG. 12).

[4] = system: HUVECs; test: Cytotoxicity in HUVECs (MTT); format: cell-based, human; details: 100 μM, 24 h
Experimental: Selected TLR2/4 antagonist compounds 2, 6, 7, 8, 14, 17 and 32 were evaluated for cytotoxicity in HUVECs at 100 μM concentration. The cells were treated with compounds and incubated for 24 h. Cell viability was assessed using MTT cell proliferation kit (Promega). All the compounds were not toxic to HUVECs (FIG. 15).

[5] = system: HUVECs; test: Anti-angiogenic activity, VEGF induced tube formation in HUVECs; format: cell-based, human; details: VEGF 100 ng/mL
Experimental: Selected TLR2/4 antagonist compounds 2, 6, 7, 8, 14, 17 and 32 were evaluated for anti-angiogenic activity using the Tube Formation kit (Cat #3470-096-K). VEGF (100 ng/mL) was used as positive control. These compounds have potential applications in diseases associated with pathological angiogenesis such as solid tumor, […], diabetic retinopathy as well as AMD.

[6] = system: neonatal pups with BPD; test: Hyperoxia mouse model of BPD (newborn pups); format: in vivo; details: for lung injury in neonatal pups with BPD: mouse model of BPD; for TLR4 inhibition in an in vivo model system: neonatal pups with BPD; for lung architecture: saline IV and nanosuspension IN
Excerpt: Neonatal mice and humans undergo similar stages of lung development but differ with respect to the duration of each stage and its temporal relationship to gestational age. The lungs of the mouse born at term are in the saccular stage and are surfactant sufficient; this can be considered somewhat akin to a human preterm neonate in the same stage of lung development that has been exposed to a full complement of antenatal steroids (which is known to enhance surfactant production). In terms of mimicking the human condition, the most successful hyperoxia models are those that limit exposure to hyperoxia to the saccular stage of pulmonary development. The mouse BPD model involves exposing newborn mice (postnatal day 1 or PN1) to 100% oxygen till PN4 followed by recovery in room air (RA) for another 10 days.
After the recovery period, their lungs were harvested and processed for quantitative PCR, western blotting, histopathology and ELISA.
Each of the compounds 3, 8 or 32 encapsulated in PLGA nanoparticles referred as 3NP, 8NP and 32NP was instilled intranasally (IN) as nanosuspension to newborn pups on PN2 and PN4 at different doses (FIG. 28). After the recovery period, their lungs were harvested and processed for quantitative PCR, western blotting and histopathology and ELISA.
BPD is characterized by large simplified alveoli, inflammation, increased cell death, decreased cell proliferation, dysmorphic capillary configuration, and variable interstitial cellularity and/or fibroproliferation. […] This is determined by measuring the alveolar chord length, septal thickness and radial alveolar count (RAC). In BPD, the alveolar area increases which is characterized by increase in the diameter of the alveolar sacs, the septa become thickened (thus interfering in gaseous exchange) and the RAC, a parameter used to assess the complexity of terminal respiratory unit by pulmonologists, decreases as a result of arrested lung development.

[7] = system: normal lung epithelial cells (AT-1); details: 1 mM and 2 mM, 48 h
Experimental: Compounds 8, 17, 29 and 35 were tested for cytotoxicity in normal lung epithelial cells (AT-1) at concentrations of 1 mM and 2 mM. The cells were treated with compounds and incubated for 48 h. Cell viability was assessed using tryptan blue live/dead assay.

[8] = system: P. aeruginosa (ATCC-10145 GFP) infected skin wounds; test: Murine skin wound infection with P. aeruginosa; format: in vivo, C57BL/6 mice
Experimental: Five groups of C57BL/6 mice (8-10 weeks old, n=4) were wounded on the dorsal surface. 25 ul containing 10^6 CFU/mL P. aeruginosa in a PBS suspension were pipetted onto the wound and allowed to absorb for at least 3 min. […] Subsequently and for the next 13 days, infected wounds were treated each alternate day with colistin, or with test compounds.

Sequence of TLR4 (O00206 24-839): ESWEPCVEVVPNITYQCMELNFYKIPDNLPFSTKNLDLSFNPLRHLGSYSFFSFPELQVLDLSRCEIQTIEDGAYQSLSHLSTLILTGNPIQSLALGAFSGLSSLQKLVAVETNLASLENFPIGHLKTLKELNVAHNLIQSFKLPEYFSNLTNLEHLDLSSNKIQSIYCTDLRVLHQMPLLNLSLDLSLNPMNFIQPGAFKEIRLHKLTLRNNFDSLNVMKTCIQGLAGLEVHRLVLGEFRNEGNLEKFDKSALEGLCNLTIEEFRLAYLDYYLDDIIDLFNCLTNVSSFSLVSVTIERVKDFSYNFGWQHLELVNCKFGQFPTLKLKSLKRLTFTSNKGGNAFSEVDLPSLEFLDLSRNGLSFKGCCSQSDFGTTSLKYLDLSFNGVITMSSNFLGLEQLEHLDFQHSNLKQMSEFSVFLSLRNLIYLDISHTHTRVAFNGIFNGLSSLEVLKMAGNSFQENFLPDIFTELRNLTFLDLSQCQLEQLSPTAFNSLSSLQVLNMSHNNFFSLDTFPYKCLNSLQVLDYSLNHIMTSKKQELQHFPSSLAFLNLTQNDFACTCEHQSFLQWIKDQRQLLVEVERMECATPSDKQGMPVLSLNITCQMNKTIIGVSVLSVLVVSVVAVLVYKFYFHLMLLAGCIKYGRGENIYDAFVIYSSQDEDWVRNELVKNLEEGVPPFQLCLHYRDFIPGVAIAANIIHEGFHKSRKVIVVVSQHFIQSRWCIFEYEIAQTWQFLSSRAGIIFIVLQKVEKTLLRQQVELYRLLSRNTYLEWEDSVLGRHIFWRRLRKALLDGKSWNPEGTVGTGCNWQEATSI

Compound | TLR2/4 antagonist or TLR4 agonist activity as shown in Table-1 [1] | cytotoxicity in hPBMC [3] | cytotoxicity in HUVECs [4] | VEGF induced tube formation [5] | also measured
CC(=O)NC1[C@H](Oc2cccc3sc(NC(=O)C(C)(C)C)nc23)O[C@H](CO)[C@@H](O)[C@@H]1O (single isomer, unassigned) [Compound 23] | TLR4 agonists | – | – | – | –
CC(=O)NC1[C@H](Oc2ccc(N3CCN(C(C)=O)CC3)cc2)O[C@H](CO)[C@@H](O)[C@@H]1O (single isomer, unassigned) [Compound 28] | TLR4 agonists | – | – | – | –
CC(=O)NC1[C@H](Oc2ccc3c(C)cc(=O)oc3c2)O[C@H](CO)[C@@H](O)[C@@H]1O (single isomer, unassigned) [Compound 29] | TLR4 agonists | – | – | – | –
CC(=O)NC1[C@H](Oc2ccc(B3OC(C)(C)C(C)(C)O3)cc2)O[C@H](CO)[C@@H](O)[C@@H]1O (single isomer, unassigned) [Compound 32, p-Pinacoloneboronatephenyl 2-acetamido-2-deoxy-β-D-glucopyranoside] | – | not toxic | not toxic | significantly deceased | monocyte differentiation into macrophages [2]: stimulated; intracellular killing of bacteria ([2]; Pseudomonas aeruginosa, THP-1 cells): increased; phagocytosis of Pseudomonas aeruginosa ([2]; THP-1 cells): increased; lung injury in neonatal pups with BPD [6]: prevent lung injury; TLR4 inhibition in an in vivo model system [6]: inhibit TLR4; lung architecture [6]: restored
CC(=O)NC1C(Oc2ccc3nonc3c2)OC(CO)C(O)C1O (stereo in doubt) [Compound 17, N-((2S,3R,4S,5S,6R)-2-(benzo[c][1,2,5]oxadiazol-5-yloxy)-4,5-dihydroxy-6-(hydroxymethyl)tetrahydro-2H-pyran-3-yl)acetamide] | TLR4 agonists | not toxic | not toxic | significantly deceased | –
CC(=O)N[C@@H]1[C@@H](OC(C)=O)[C@H](OC(C)=O)[C@@H](COC(C)=O)O[C@H]1NC(=O)c1ccc(O[C@@H]2O[C@H](CO)[C@@H](O)[C@H](O)[C@H]2NC(C)=O)cc1 [Compound 2] | – | not toxic | not toxic | significantly deceased | –
CC(=O)N[C@@H]1[C@@H](O)[C@H](O)[C@@H](CO)O[C@H]1NC(=O)c1ccc(O[C@@H]2O[C@H](CO)[C@@H](O)[C@H](O)[C@H]2NC(C)=O)cc1 [Compound 3] | – | – | – | – | lung injury in neonatal pups with BPD [6]: prevent lung injury; TLR4 inhibition in an in vivo model system [6]: inhibit TLR4; lung architecture [6]: restored
CC(=O)N[C@H]1[C@H](Oc2ccc(C(=O)Nc3ccc(O[C@@H]4O[C@H](COC(C)=O)[C@@H](OC(C)=O)[C@H](OC(C)=O)[C@H]4NC(C)=O)cc3)cc2)O[C@H](CO)[C@@H](O)[C@@H]1O [Compound 6] | – | – | not toxic | significantly deceased | –
CC(=O)N[C@H]1[C@H](Oc2ccc(NC(=O)c3ccc(O[C@@H]4O[C@H](CO)[C@@H](O)[C@H](O)[C@H]4NC(C)=O)cc3)cc2)O[C@H](CO)[C@@H](O)[C@@H]1O [Compound 7] | – | not toxic | not toxic | significantly deceased | –
CC(=O)N[C@H]1[C@H](Oc2ccc(C#N)cc2)O[C@H](CO)[C@@H](O)[C@@H]1O [Compound 14, p-Cyanophenyl 2-acetamido-2-deoxy-β-D-glucopyranoside] | – | not toxic | not toxic | significantly deceased | –
CC(=O)N[C@H]1[C@H](Oc2ccc3c(C)cc(=O)oc3c2)O[C@H](COS(=O)(=O)O)[C@@H](O)[C@@H]1O [Compound 30] | TLR4 agonists | – | – | – | –
COc1ccc(OC2OC(CO)C(O)C(O)[C@@H]2NC(C)=O)cc1 (stereo partly shown) [Compound 38] | TLR4 agonists | – | – | – | –
CC(=O)N[C@@H]1C(Oc2ccc(Cl)cc2)OC(CO)C(O)C1O (stereo partly shown) [Compound 39] | TLR4 agonists | – | – | – | –
CC(=O)N[C@@H]1C(Oc2ccccc2O)OC(CO)C(O)C1O (stereo partly shown) [Compound 40] | TLR4 agonists | – | – | – | –
CC(=O)O[C@H]1C(=O)[C@@]2(C)[C@H]([C@H](OC(=O)c3ccccc3)[C@]3(O)C[C@H](OC(=O)[C@H](O)[C@@H](NC(=O)c4ccccc4)c4ccccc4)C(C)=C1C3(C)C)[C@]1(OC(C)=O)CO[C@@H]1C[C@@H]2O [Taxol] | – | – | – | – | cytotoxicity in normal lung epithelial cells (AT-1) [7]: toxic
colistin [reference compound] | – | – | – | – | wound closure at day 13 ([8]; 25 μl Colistin 4 μg/ml or compound 100 μg/ml, each alternate day): complete closure; re-epithelialization and granulation tissue versus controls ([8]; H&E histology, day 13 post-injury): significantly enhanced
